Where “and” joins values, the source holds several entries; their conditions need not be identical. Identical values can stand only once.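 Following 48 hours of exposure in 96-well plates, responses at five concentrations were used to interpolate endpoints linearly. Here, GI50 denotes the concentration required for 50% inhibition of growth. Definition used: TGI = concentration required for complete inhibition of growth.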
How the values were obtained:
Experiment in all cases: inhibition of tumour cell growth, NCI panel, 48 h
COLO 205 colon = tested on: COLO 205 colon
HOP-92 NSCLC = tested on: HOP-92 NSCLC
MALME-3M melanoma = tested on: MALME-3M melanoma
NCI-H23 lung = tested on: NCI-H23 lung
RXF 393 renal = tested on: RXF 393 renal
SF-295 CNS = tested on: SF-295 CNS
TK-10 renal = tested on: TK-10 renal
T-47D breast = tested on: T-47D breast

SMILES | TGI (COLO 205 colon) | TGI (HOP-92 NSCLC) | TGI (MALME-3M melanoma) | TGI (NCI-H23 lung) | GI50 (RXF 393 renal) | TGI (RXF 393 renal) | TGI (SF-295 CNS) | GI50 (TK-10 renal) | TGI (TK-10 renal) | TGI (T-47D breast)
Cc1cc(C)c(N)c(CO)c1 | > 100 µM | > 100 µM | > 100 µM | > 100 µM | > 100 µM and 32.3 µM | > 100 µM | > 100 µM | 2.61 µM and 6.9 µM | 18.7 µM and > 38.5 µM | 
N#Cc1nc(-c2ccccn2)c(-c2ccccn2)nc1C#N | 10.6 µM | > 45.6 µM |  | 16.7 µM |  | 15.9 µM | 7.92 µM |  | 17.3 µM | 9.5 µM
Oc1[nH]c2ccccc2c1N=NC(=S)NCc1ccccn1 | 13.6 µM | 18.1 µM | 17.9 µM | 14.9 µM |  |  | 18 µM |  | 18.3 µM | 21.4 µM
CC(=O)N1C(=O)/C(=C\C(=O)c2ccc(Cl)cc2)c2ccccc21 | 26.7 µM | 35 µM | 32.6 µM | 31.7 µM |  | 32.6 µM | 52.7 µM |  | 30.5 µM | 47.6 µM
Fc1sc2c(c1F)C1CCC2C1 (centres undefined) | > 100 µM | > 100 µM | > 100 µM | > 100 µM |  | > 100 µM | > 100 µM |  | > 100 µM | > 100 µM
CC1=CCC(=O)[C@]2(C)C(CC(=O)O)[C@]3(C)C4=C(C)C(c5ccoc5)C[C@@H]4O[C@@H]3[C@H](O)[C@@H]12 (some centres undefined) | > 100 µM | > 100 µM | > 100 µM | > 100 µM |  |  | > 100 µM |  | > 100 µM | > 100 µM
Cc1cccc2c1C(=O)/C(=C/c1ccccc1C(=O)O)C2 | > 100 µM | > 100 µM | > 100 µM | > 100 µM |  | > 100 µM | > 100 µM |  | > 100 µM | > 100 µM
CC(=O)O[C@H]1CC[C@]2(C=O)[C@H]3CC[C@]4(C)[C@@H](C5=CC(=O)OC5)CC[C@]4(O)[C@@H]3CC[C@]2(O)C1 | 1.64 µM | 2.76 µM | 0.566 µM | 0.373 µM |  |  | 0.853 µM |  | 0.93 µM | 2.68 µM
Cc1cc(=O)oc2c(CN(CCCl)CCCl)c(O)ccc12 | 71.7 µM | > 100 µM | > 100 µM | > 100 µM |  | > 100 µM | > 100 µM |  |  | > 100 µM
COc1ccc(C(OCC2OC(n3ccc(Oc4c(F)c(F)c(F)c(F)c4F)nc3=O)CC2OP(OCCC#N)N(C(C)C)C(C)C)(c2ccccc2)c2ccc(OC)cc2)cc1 (centres undefined) | > 100 µM | > 100 µM |  | > 100 µM |  | > 100 µM | > 100 µM |  | > 100 µM | > 100 µM
C=C1CC2C[C@H](OS(=O)(=O)c3ccc(C)cc3)C(C1)N2C (some centres undefined) | > 100 µM |  | > 100 µM | > 100 µM |  | > 100 µM | > 100 µM |  | > 100 µM | > 100 µM
CC1CN=C(N(C(=O)Nc2ccccc2)C2CCCCC2)S1 (centres undefined) | 37 µM |  | 32 µM | 33.8 µM |  |  | 31.8 µM |  | 37 µM | 92.7 µM
COc1ccc(C2CCc3c(cnc4nc(N)nc(N)c34)C2)cc1 (centres undefined) | > 100 µM | 12.3 µM | > 100 µM |  |  | 42.6 µM | > 100 µM |  | 36 µM | 95.3 µM
CC1CC/C(=C\c2ccc(F)cc2)C2=C1C(c1ccc(F)cc1)NC(=S)N2 (centres undefined) | > 100 µM |  | 87.3 µM | > 100 µM |  | > 100 µM | > 100 µM |  | > 100 µM | 70.8 µM
COc1ccc(OC)c([N+](=O)[O-])c1-c1nc2sc(C)cn2c1/C=N/N=C(N)N |  | 47.8 µM | 44.3 µM | 66 µM |  | 76.1 µM | 57.1 µM |  | 43.3 µM | 
O=C(Nc1ccccc1C(=O)O)C(=Cc1ccccc1O)NC(=O)c1ccccc1 | > 100 µM | > 100 µM | > 100 µM | > 100 µM |  | > 100 µM | > 100 µM |  |  | > 100 µM
N#Cc1c(NC(=S)Nc2ccccc2)sc2c1CCCC2 | > 100 µM |  | > 100 µM | > 100 µM |  | > 100 µM | > 100 µM |  | > 100 µM | > 100 µM
Cc1nc(C)c(C(=O)NNC(=O)c2ccccc2)cc1C(=O)NNC(=O)c1ccccc1 | > 100 µM | > 100 µM |  | > 100 µM |  | > 100 µM | > 100 µM |  | > 100 µM | > 100 µM
O=C1CSC2=NC3=C(COC/C3=C\c3ccc(F)cc3)C(c3ccc(F)cc3)N12 (centres undefined) | > 100 µM | > 100 µM |  | > 100 µM |  | > 100 µM | > 100 µM |  | > 100 µM | > 100 µM
C[C@@H]1CC(=O)[C@@]2(C)[C@](O)(CCC3O[C@]32C)[C@@]12CC(c1ccoc1)OC2=O (some centres undefined) | > 100 µM |  | > 100 µM | > 100 µM |  | 88.6 µM | > 100 µM |  | > 100 µM | > 100 µM
c1ccc(C2C3=C(CCCC3)Nc3nnnn32)cc1 (centres undefined) | > 100 µM |  |  | > 100 µM |  | 27.8 µM | > 100 µM |  |  | > 100 µM
COc1ccc(C2=C(N)c3cc(OC)ccc3C2=O)cc1 | > 100 µM | > 100 µM | > 100 µM | > 100 µM |  |  | > 100 µM |  |  | > 100 µM
COc1ccc(-c2nc3ncccn3c2-c2ccc(S(C)(=O)=O)cc2)cc1 | > 100 µM | > 100 µM |  | > 100 µM |  |  | > 100 µM |  |  | 
O=C1/C(=C/Cc2ccco2)N=C(c2ccccc2)N1c1nc2c(Cl)cc(Cl)cc2s1 | > 100 µM | 87.4 µM |  |  |  | 40.6 µM | > 100 µM |  | > 100 µM | 73.5 µM
NC(=O)c1nnc2c(F)cccc2c1N | > 100 µM |  | > 100 µM | > 100 µM |  |  | > 100 µM |  | > 100 µM | > 100 µM
N#CC(NNC(=O)c1c(Cl)c(Cl)c(Cl)c(Cl)c1-c1nc2ccc(C(=O)c3ccccc3)cc2[nH]1)c1cccc(Oc2ccccc2)c1 (centres undefined) | 46.1 µM | 48.3 µM |  | 90.9 µM |  | 55.5 µM | 96.6 µM |  | 95.1 µM | 76.2 µM
S=C1NNC(=S)NN1 | > 1 µM | > 1 µM | > 1 µM | > 1 µM |  |  | 0.486 µM |  | > 1 µM | > 1 µM

— PubChem BioAssay (NCI)
